Results taken from ChEMBL document CHEMBL1201862, “PubChem BioAssay data set” (2004).
“And” between values parts separate entries of the source, which are not always exact repeats. Identical values can stand only once. The source made the active and inactive calls.

Columns and labels:
[1] = target: Mitogen-activated protein kinase 10 (Homo sapiens, UniProt P53779); assay: Dose response biochemical screening assay for inhibitors of c-Jun N-Terminal Kinase 3 (JNK3). [Related pubchem assays: 746 ]
Mitogen-activated protein kinase 10, sequence (P53779 whole entry): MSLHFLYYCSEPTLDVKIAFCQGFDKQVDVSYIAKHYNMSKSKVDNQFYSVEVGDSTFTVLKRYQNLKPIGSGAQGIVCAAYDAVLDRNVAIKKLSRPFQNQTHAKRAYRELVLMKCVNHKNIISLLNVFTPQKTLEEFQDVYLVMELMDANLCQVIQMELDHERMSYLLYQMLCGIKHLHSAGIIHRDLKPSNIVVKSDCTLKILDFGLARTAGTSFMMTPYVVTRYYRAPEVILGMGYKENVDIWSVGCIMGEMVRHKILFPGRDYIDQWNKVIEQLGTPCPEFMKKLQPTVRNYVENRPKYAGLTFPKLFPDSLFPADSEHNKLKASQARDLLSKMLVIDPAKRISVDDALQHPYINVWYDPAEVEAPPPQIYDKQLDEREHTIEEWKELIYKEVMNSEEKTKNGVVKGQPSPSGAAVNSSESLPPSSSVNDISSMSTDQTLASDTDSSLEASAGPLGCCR

[2] = target: Peroxisome proliferator-activated receptor gamma/Nuclear receptor coactivator 2 (Homo sapiens, UniProt P37231); assay: (§1) TR-FRET dose response biochemical High Throughput Screening assay for agonists of the steroid receptor coactivator 2 (SRC-2) recruitment by the peroxisome proliferator-activated receptor gamma (PPAR gamma): non-selective agonists. [Related pubchem assays: 1297, 1032 ]; format: functional
[3] = target: Peroxisome proliferator-activated receptor gamma/Nuclear receptor coactivator 3 (Homo sapiens, UniProt P37231); assay: as §1, with “3 (SRC-3)” for “2 (SRC-2)”, “1301 (Confirmation screen.), 1048 (Primary screen.)]” for “1297, 1032 ]”; format: functional
[4] = target: Peroxisome proliferator-activated receptor gamma/Nuclear receptor coactivator 1 (Homo sapiens, UniProt P37231); assay: as §1, with “1 (SRC-1)” for “2 (SRC-2)”, “assays (depositor defined):AID1300, AID1808, AID504735, AID631]” for “assays: 1297, 1032 ]”; format: protein assay
[5] = target: Heat shock protein HSP 90-alpha (Homo sapiens, UniProt P07900); assay: Luminescence-based dose response biochemical high throughput screening assay for inhibitors of the Heat Shock Protein 90 (HSP90). [Related pubchem assays: 1831 (Summary AID.), 1846 (Confirmation screen.), 1789 (Primary screen.)]
[6] = target: RNA-editing ligase 1, mitochondrial (Trypanosoma brucei brucei, UniProt P86926); assay: inhibition of trypanosome RNA editing ligase – biochemical, fluorescence, Trypanosoma brucei, dose response (AID 1117295); format: functional
RNA-editing ligase 1, mitochondrial, sequence (P86926 whole entry): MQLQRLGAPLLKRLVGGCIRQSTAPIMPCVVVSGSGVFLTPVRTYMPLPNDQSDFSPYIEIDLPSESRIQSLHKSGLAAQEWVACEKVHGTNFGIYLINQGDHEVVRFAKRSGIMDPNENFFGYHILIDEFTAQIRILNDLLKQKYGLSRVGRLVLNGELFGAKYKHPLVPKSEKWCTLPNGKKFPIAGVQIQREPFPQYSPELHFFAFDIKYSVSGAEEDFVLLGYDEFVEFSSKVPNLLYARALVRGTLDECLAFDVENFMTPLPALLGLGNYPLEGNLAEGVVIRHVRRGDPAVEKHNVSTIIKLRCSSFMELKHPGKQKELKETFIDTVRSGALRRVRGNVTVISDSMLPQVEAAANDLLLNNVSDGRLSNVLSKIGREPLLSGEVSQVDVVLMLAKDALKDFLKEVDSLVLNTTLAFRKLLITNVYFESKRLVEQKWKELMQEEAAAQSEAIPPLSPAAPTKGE

[7] = target: Ion channel NompC (Danio rerio, UniProt Q7T1G6); assay: Fluorescence counterscreen assay for TRPML3 agonists: dose response cell-based high-throughput screening assay to identify agonists of the transient receptor potential channel N1 (TRPN1). [Related pubchem assays: 1526, 1424, 1448 ]; format: functional
Ion channel NompC, sequence (Q7T1G6 whole entry): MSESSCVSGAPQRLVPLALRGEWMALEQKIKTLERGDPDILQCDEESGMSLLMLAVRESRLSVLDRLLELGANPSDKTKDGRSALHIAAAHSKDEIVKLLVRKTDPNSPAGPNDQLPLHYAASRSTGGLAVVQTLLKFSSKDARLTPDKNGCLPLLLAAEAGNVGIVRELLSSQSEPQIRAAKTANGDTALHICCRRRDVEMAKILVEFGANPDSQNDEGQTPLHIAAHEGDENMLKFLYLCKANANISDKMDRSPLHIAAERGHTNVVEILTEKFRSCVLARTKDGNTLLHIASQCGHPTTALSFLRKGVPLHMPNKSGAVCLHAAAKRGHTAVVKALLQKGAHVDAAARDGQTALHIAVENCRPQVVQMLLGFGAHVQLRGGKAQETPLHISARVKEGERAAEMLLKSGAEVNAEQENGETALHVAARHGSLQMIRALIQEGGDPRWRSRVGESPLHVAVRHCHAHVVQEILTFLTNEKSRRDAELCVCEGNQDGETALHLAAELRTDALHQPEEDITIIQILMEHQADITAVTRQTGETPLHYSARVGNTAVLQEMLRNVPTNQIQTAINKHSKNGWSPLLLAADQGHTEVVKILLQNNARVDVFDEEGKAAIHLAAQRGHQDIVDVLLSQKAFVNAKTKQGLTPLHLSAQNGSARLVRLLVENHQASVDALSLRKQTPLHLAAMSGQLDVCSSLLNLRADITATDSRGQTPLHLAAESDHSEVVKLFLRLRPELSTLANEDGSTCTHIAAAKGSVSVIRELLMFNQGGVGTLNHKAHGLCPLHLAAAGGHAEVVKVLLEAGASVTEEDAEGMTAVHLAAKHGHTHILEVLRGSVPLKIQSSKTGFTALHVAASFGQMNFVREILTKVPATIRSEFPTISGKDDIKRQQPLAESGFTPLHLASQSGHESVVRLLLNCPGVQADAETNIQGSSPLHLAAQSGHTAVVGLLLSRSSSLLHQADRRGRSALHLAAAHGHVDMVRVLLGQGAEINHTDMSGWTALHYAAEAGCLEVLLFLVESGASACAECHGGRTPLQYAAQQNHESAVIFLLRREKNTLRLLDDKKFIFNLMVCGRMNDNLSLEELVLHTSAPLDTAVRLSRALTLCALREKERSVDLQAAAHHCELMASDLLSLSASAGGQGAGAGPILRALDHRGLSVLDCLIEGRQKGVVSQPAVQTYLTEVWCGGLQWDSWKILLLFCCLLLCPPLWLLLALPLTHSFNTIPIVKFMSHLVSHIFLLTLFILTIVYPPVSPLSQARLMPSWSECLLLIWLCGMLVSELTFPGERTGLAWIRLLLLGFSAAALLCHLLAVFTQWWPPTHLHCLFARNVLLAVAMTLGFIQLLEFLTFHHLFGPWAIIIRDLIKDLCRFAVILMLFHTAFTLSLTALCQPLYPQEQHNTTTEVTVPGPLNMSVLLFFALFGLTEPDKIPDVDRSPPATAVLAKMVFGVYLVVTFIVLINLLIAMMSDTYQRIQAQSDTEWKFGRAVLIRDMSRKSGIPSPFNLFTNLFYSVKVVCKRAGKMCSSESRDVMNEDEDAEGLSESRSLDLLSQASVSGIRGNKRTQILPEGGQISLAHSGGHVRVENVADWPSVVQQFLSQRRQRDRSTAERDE

[8] = target: T1, Mucolipin-3 (Homo sapiens, UniProt Q8TDD5); assay: Dose response cell-based high-throughput screening assay for agonists of the transient receptor potential channel ML3 (TRPML3). [Related pubchem assays: 1526, 1424, 1448 ]; format: functional
T1 sequence (Q8TDD5 whole entry): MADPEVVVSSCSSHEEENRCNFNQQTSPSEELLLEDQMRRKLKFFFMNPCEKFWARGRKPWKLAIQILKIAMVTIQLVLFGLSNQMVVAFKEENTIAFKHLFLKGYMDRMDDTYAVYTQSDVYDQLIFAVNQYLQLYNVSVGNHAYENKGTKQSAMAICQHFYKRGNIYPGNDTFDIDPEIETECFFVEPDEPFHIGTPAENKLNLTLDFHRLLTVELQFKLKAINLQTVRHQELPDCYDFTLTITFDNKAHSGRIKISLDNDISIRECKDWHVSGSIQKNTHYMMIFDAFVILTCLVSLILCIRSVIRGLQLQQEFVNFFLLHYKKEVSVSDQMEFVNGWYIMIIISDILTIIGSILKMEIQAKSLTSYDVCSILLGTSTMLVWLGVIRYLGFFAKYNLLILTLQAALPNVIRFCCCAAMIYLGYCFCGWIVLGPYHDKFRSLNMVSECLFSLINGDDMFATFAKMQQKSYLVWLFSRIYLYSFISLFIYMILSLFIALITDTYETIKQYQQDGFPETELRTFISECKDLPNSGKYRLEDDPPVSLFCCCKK

[9] = target: T2, Small ubiquitin-related modifier 1 (Homo sapiens, UniProt P63165); assay: SUMO1 protein-protein binding blockers, potency – biochemical, FRET, dose response (AID 624383); format: functional; conditions: read-out: IC50_Mean
T2 sequence (P63165 whole entry): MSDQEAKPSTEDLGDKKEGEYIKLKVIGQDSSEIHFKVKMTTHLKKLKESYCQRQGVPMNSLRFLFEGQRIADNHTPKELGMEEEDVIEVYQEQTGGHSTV

[10] = target: T2, Small ubiquitin-related modifier 1; assay: SUMO1 protein interaction blockers, potency – biochemical, fluorescence polarization, uHTS hits, dose response (AID 624382); format: functional; conditions: read-out: IC50_Mean
[11] = target: Ubiquitin carboxyl-terminal hydrolase BAP1 (Homo sapiens, UniProt Q92560); assay: inhibition of BAP1 ubiquitin hydrolase activity – biochemical, dose response (AID 714); format: functional
Ubiquitin carboxyl-terminal hydrolase BAP1, sequence (Q92560 whole entry): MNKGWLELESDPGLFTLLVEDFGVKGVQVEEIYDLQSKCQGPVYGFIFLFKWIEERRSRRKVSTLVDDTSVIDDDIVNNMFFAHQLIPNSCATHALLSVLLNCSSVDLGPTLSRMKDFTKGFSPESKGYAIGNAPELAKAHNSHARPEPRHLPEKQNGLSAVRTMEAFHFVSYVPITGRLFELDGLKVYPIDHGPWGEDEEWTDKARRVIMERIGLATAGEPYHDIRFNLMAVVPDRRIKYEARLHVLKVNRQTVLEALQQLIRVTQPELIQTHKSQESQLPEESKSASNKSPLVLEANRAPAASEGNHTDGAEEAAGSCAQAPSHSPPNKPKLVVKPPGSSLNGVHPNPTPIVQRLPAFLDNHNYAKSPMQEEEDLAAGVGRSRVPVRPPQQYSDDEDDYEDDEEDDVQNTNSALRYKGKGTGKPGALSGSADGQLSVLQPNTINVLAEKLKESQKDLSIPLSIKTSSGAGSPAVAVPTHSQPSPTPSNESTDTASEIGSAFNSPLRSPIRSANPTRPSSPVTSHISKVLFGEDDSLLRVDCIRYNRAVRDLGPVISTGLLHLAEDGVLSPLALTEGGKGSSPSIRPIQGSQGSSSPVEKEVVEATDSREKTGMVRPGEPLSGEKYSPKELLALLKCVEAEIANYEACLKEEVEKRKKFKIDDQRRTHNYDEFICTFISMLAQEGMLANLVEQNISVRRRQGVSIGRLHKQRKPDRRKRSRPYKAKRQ

[12] = target: T3, Bcl-2-related protein A1 (Mus musculus, UniProt Q07440); assay: displacement of Bid BH3 peptide from Bfl-1 – biochemical, fluorescence polarization, FITC-Bid, mouse, primary screen (AID 432)
T3 sequence (Q07440 whole entry): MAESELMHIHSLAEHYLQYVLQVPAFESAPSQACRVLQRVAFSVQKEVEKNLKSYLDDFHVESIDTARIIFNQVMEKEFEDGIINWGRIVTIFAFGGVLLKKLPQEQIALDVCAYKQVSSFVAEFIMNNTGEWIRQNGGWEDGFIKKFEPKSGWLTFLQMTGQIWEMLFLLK

[13] = target: T3, Bcl-2-related protein A1; assay: small-molecule antagonists of Bfl-1/BH3 interaction – biochemical, TR-FRET, mouse Bfl-1, confirmation (AID 621);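 further: TR-FRET binding of GST-Bfl-1 to FITC-labelled Bid peptide via terbium antibody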
[14] = target: T4, Insulin-degrading enzyme (Homo sapiens, UniProt P14735); assay: Dose Response: Fluorescence polarization-based cell-based high throughput dose response assay for inhibitors of insulin-degrading enzyme (IDE). [Related pubchem assays: 434962 (Primary screen (IDE inhibitors in singlicate)), 449730 (Counterscreen (Cytotoxicity in triplicate)), 435028 (Confirmation (IDE inhibitors in triplicate)), 434984 (Summary …; format: functional
T4 sequence (P14735 whole entry): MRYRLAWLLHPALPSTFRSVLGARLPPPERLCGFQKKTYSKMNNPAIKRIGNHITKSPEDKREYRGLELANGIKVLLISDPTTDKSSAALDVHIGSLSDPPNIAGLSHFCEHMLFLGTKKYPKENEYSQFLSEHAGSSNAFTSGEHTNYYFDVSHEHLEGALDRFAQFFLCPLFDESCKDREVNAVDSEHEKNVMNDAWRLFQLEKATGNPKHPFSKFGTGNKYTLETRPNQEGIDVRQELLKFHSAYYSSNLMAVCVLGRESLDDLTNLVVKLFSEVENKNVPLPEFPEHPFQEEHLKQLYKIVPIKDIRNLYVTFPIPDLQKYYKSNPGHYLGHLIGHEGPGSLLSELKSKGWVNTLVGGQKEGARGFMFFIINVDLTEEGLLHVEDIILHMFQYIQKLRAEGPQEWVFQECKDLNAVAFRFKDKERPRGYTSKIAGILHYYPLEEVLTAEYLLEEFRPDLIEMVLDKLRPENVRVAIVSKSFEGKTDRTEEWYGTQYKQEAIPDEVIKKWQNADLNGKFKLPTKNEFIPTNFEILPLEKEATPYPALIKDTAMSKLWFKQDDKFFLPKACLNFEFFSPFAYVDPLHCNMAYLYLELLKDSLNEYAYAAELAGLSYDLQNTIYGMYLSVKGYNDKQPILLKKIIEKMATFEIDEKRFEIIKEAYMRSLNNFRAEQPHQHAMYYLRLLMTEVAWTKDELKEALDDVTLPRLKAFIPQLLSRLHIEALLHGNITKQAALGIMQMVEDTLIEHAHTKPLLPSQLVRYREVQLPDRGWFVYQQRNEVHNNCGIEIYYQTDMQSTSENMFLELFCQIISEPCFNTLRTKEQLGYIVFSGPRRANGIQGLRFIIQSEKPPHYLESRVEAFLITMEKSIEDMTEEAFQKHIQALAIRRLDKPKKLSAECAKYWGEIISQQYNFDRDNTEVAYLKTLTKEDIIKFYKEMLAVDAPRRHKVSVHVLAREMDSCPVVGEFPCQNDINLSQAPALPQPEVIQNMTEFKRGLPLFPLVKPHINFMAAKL

[15] = Counterscreen for IDE inhibitors: Luminescence-based cell-based high throughput dose response assay to identify compounds that are cytotoxic to HEK cells. [Related pubchem assays: 434962 (Primary screen (IDE inhibitors in singlicate)), 449730 (Counterscreen (Cytotoxicity in triplicate)), 435028 (Confirmation (IDE inhibitors in triplicate)) …; format: functional; conditions: HEK293
[16] = system: Vero; assay: mammalian cell viability reduction – secondary assay, cytotoxicity control for West Nile virus antiviral project, dose response (AID 1650); format: functional; conditions: Chlorocebus sabaeus
[17] = M. tuberculosis H37Rv growth inhibitors, H37Rv strain (AID 1626); format: functional
[18] = system: HeLa; assay: Cytotoxicity counterscreen assay for transcriptional activators of heat shock protein 70 (Hsp70). [Related pubchem assays: 1203, 1252 ]; format: functional; conditions: Homo sapiens;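 further: cells exposed to compound for 16 hours before readout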
[19] = target: T3, Bcl-2-related protein A1; assay: Bfl-1 binding inhibitors, SAR follow-up, biochemical, fluorescence polarization (AID 1070)
[20] = target: T5, Estrogen receptor beta (Homo sapiens, UniProt Q92731); assay: blockers of SRC-3 recruitment to ERβ – biochemical, ELISA, streptavidin-HRP readout, orthogonal assay, confirmation (AID 1060)
T5 sequence (Q92731 whole entry): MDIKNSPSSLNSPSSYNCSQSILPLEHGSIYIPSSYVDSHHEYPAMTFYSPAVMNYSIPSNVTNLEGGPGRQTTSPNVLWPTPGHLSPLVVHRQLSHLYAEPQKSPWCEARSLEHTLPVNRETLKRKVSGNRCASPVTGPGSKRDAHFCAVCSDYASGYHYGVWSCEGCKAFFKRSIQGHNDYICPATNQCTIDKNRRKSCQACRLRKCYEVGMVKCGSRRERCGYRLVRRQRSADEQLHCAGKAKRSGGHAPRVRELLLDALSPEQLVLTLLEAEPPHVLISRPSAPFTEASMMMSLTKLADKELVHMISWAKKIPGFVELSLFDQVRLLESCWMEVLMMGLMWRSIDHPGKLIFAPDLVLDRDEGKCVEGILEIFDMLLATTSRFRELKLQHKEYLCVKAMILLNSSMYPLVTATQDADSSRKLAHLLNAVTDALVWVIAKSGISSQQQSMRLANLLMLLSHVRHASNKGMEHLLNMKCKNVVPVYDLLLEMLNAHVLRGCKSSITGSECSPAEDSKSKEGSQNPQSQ

[21] = target: Glyceraldehyde-3-phosphate dehydrogenase (Homo sapiens, UniProt P04406)
Glyceraldehyde-3-phosphate dehydrogenase, sequence (P04406 whole entry): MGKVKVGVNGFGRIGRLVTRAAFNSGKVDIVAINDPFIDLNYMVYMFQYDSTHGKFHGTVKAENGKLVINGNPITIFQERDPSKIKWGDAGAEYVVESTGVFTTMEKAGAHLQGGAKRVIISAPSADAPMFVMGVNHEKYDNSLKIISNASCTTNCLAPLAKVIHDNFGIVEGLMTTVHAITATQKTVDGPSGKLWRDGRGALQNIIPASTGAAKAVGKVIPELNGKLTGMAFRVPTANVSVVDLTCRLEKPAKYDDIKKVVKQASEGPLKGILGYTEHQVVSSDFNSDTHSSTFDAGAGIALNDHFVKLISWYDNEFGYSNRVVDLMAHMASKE

[22] = target: T6, Estrogen receptor (Homo sapiens, UniProt P03372);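 further: potency for inhibiting coactivator peptide recruitment to the receptor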
T6 sequence (P03372 whole entry): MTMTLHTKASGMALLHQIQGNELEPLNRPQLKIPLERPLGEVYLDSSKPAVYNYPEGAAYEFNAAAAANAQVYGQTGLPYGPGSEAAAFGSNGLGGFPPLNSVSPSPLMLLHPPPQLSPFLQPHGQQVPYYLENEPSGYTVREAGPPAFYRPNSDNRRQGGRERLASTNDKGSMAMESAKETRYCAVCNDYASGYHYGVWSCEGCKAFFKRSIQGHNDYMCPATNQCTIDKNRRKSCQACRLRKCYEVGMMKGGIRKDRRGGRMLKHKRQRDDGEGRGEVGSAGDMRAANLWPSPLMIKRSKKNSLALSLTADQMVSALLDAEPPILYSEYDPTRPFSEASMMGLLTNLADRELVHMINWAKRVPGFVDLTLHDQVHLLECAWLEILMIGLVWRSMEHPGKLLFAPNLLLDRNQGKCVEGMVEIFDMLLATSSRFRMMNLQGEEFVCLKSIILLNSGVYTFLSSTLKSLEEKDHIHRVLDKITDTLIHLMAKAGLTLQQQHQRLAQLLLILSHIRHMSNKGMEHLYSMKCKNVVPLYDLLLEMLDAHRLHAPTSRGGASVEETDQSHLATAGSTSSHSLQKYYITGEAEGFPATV

[23] = target: T5, Estrogen receptor beta

CCOC(=O)CC(=O)CSc1ncnc2c1oc1ccccc12
IC50 [1]: > 31 µM (not active)
EC50 [2]: > 26.5 µM (not active)
EC50 [3]: > 79.4 µM (not active)
EC50 [4]: > 79.4 µM (inactive)

COCCn1c(C)cc(C(=O)Cn2nc(C(=O)O)c3ccccc3c2=O)c1C
IC50 [5]: 3.73 µM (active)

COC(=O)C1=C(C)N(Cc2ccccc2C(F)(F)F)C(NCc2ccc3c(c2)OCO3)=NC1c1ccc(C(F)(F)F)cc1 (stereo unspecified)
IC50 [6]: > 96.6 µM (inactive)

CC1=CC(C)(C)N(C(=O)CSc2nnc(-c3ccccc3)o2)c2ccc(C)cc21
EC50 [7]: > 29.9 µM (not active)
EC50 [8]: 4.18 µM (active)

O=C(CSc1ncccc1-c1nc2ccccc2[nH]1)N1CCN(c2ccccc2F)CC1
IC50 [1]: 55.9 µM (not active)

O=C(O)c1cccc(NC(=S)NC(NC(=O)c2cccc([N+](=O)[O-])c2)C(Cl)(Cl)Cl)c1 (stereo unspecified)
IC50 [9]: 10.8 µM (active)
IC50 [10]: > 66.6 µM (inactive)
IC50 [5]: 9.85 µM (active)

CCOC(=O)c1c(NC(=O)CSc2nnc(CNc3ccc(F)cc3)o2)sc(C)c1C
IC50 [11]: 29.1 µM (active)

COCCn1cnc2cc(C)c(C)cc21
IC50 [12]: > 100 µM (not active)
IC50 [13]: > 100 µM (not active)

Cc1c(-c2cccc(Cl)c2)nc2ccccc2c1C(=O)OCC(=O)N(C)C1CCS(=O)(=O)C1 (stereo unspecified)
IC50 [14]: > 55.9 µM (not active)
IC50 [15]: 36.1 µM (not active)

O=C1/C(=C/c2ccco2)SC(=S)N1CCC(=O)N1CCCCC1CCO (stereo unspecified)
CC50 [16]: 13.4 µM (active)

Cc1ccc(S(=O)(=O)N(CC(=O)N2CCCCC2)c2cccc(C)c2)cc1
EC50 [7]: > 29.9 µM (not active)
EC50 [8]: 1.24 µM (active)

O=C(CSc1nnc(-c2ccco2)o1)c1ccccc1Cl
IC50 [17]: > 100 µM (active)

Cc1cccc(-c2noc(CCCC(=O)N3CCOCC3)n2)c1
CC50 [18]: > 99 µM (not active)

CC(=O)C1=C(C)NC(SCC(=O)c2ccc(Cl)c(Cl)c2)=C(C#N)C1c1ccco1 (stereo unspecified)
IC50 [11]: > 50 µM (not active)

COC(=O)C1=C(C)N(Cc2ccccc2C(F)(F)F)C(NCC2CC2)=NC1c1ccc(F)cc1 (stereo unspecified)
IC50 [6]: > 96.6 µM (inactive)

O=C(Nc1cnn(C23CC4CC(CC(C4)C2)C3)c1)c1cnn2c(C(F)(F)F)cc(-c3ccco3)nc12
IC50 [19]: 1.69 µM (active)
IC50 [20]: < 0.023 µM (not active)
IC50 [12]: 11.2 µM (active)
IC50 [13]: 1.76 µM (active) and 12.3 µM (active)
IC50 [21]: > 100 µM (not active)
IC50 [22]: 3.64 µM (active)
IC50 [23]: > 50 µM (not active)
